Assay results: patent publication US6251894A, “1-(1,2-disubstituted piperidinyl)-4 (fused imidazole)-piperidine derivatives” (Janssen Pharmaceuticals N.V., priority 1995, dated 2001)
Read-outs that look alike come from different tables or passages of the source.

Columns and labels:
[1] = tested on: Substance P Induced Relaxation of the Pig Coronary Arteries; assay: Antagonism of substance P induced relaxation of the pig coronary arteries; conditions: 30 min incubation
Experimental: Antagonism of Substance P Induced Relaxation of the Pig Coronary Arteries
Segments of coronary arteries taken from pigs (killed by injection of an overdose of sodium pentobarbital) were inverted and mounted for recording of isometric tension in organ baths (volume 20 ml) with the endothelium at the outside. The preparations were bathed in Krebs-Henseleit solution. The solution was kept at 37° C. and gassed with a mixture of O2 /CO2 (95/5). After stabilisation of the preparations, prostaglandin F2α (10^-5 M) was administered to induce a contraction. This was repeated until contractile responses became stable. Then prostaglandin F2α was again administered and substance P (3×10^-10 M and 10^-9 M cumulatively) was added. Substance P induced endothelium dependent relaxations. After washing away the agonists, a known concentration of a compound of formula (I) was added. After an incubation period of 30 minutes, prostaglandin F2α (10^-5 M) and the same concentrations of substance P as described above were again administered in the presence of the compound to be tested.

[2] = tested on: Substance P Induced Plasma Extravasation; assay: Antagonism of substance P induced plasma extravasation in guinea-pigs; format: in vivo, guinea-pig; conditions: Cavia porcellus, 1 hour prior to substance P
Experimental: Antagonism of Substance P Induced Plasma Extravasation in Guinea-pigs
Plasma travasation was induced by injection of substance P (2 mg/kg) in the femoral artery of female guinea-pigs. Evans Blue dye (30 mg/kg) was injected simultaneously. The test compound or solvent was administered subcutaneous (s.c.) or orally (p.o.) 1 hour prior to substance P injection. 10 minutes after challenge, the animals were checked for blue colouring (a direct measure for plasma extravasation) of the nose, the forepaws, and the conjunctiva. 30 minutes after challenge, the animals were sacrificed by CO2 gas inhalation and checked for blue colouring of the trachea and the urinary bladder. […]

[3] = test compound concentration 3 × 10^-9 (unit not given)
[4] = test compound concentration 3 × 10^-8 (unit not given)
[5] = sc, 10 min, s.c., conjunctiva, read-out: lowest active dose (LAD), conjunctiva
[6] = sc, 10 min, s.c., forepaws, read-out: lowest active dose (LAD), forepaws
[7] = sc, 10 min, s.c., nose, read-out: lowest active dose (LAD), nose
[8] = sc, 0.5 h, s.c., trachea, read-out: lowest active dose (LAD), trachea
[9] = sc, 0.5 h, s.c., urinary bladder, read-out: lowest active dose (LAD), urinary bladder

Row | Compound | % inhibition of the response to 10^-9 M substance P [1, 3] [%] | other results
1 | O=C1Cn2ccnc2C(=C2CCN([C@H]3CCN(C(=O)c4cc(C(F)(F)F)cc(C(F)(F)F)c4)[C@@H](Cc4ccccc4)C3)CC2)c2ccsc21 (relative stereo) [Compound 106] | 92.3 | minimal effective dose ([2]; po, 10 min, p.o., conjunctiva, read-out: lowest active dose (LAD), conjunctiva): 10 mg/kg; minimal effective dose ([2]; po, 10 min, p.o., forepaws, read-out: lowest active dose (LAD), forepaws): 10 mg/kg; minimal effective dose ([2]; po, 10 min, p.o., nose, read-out: lowest active dose (LAD), nose): 10 mg/kg; minimal effective dose ([2]; po, 0.5 h, p.o., trachea, read-out: lowest active dose (LAD), trachea): 10 mg/kg; minimal effective dose ([2]; po, 0.5 h, p.o., urinary bladder, read-out: lowest active dose (LAD), urinary bladder): 10 mg/kg
2 | O=C(c1cc(C(F)(F)F)cc(C(F)(F)F)c1)N1CC[C@H](N2CCC(=C3c4ccccc4CCn4c(CO)cnc43)CC2)C[C@@H]1Cc1ccccc1 (racemic) [Compound 4, (±)-cis-1-[3,5-bis(trifluoromethyl)benzoyl]-4-[4-[5,6-dihydro-3-(hydroxymethyl)-11H-imidazo[2,1-b][3]benzazepin-11-ylidene]-1-piperidinyl]-2-(phenylmethyl)piperidine] |  | % inhibition of the response to 10^-9 M substance P [1, 4]: 97.0%; minimal effective dose [2, 5]: 10 mg/kg; minimal effective dose [2, 6]: 10 mg/kg; minimal effective dose [2, 7]: 10 mg/kg; minimal effective dose [2, 8]: 10 mg/kg; minimal effective dose [2, 9]: 10 mg/kg
3 | Cc1cc(C)cc(C(=O)N2CC[C@@H](N3CCC(=C4c5ccsc5C(=O)Cn5ccnc54)CC3)C[C@@H]2Cc2ccccc2)c1 (relative stereo) [Compound 112] | 66.7 | minimal effective dose [2, 5]: 0.63 mg/kg; minimal effective dose [2, 6]: 0.63 mg/kg; minimal effective dose [2, 7]: 0.63 mg/kg; minimal effective dose [2, 8]: 10 mg/kg; minimal effective dose [2, 9]: 2.5 mg/kg
4 | Cc1cc(C)cc(C(=O)N2CCC(N3CCC(=C4c5ccc(Cl)cc5CCn5ccnc54)CC3)CC2Cc2ccccc2)c1 (centres unmarked) [Compound 31] | 82.7 | 
5 | O=C(c1cc(C(F)(F)F)cc(C(F)(F)F)c1)N1CC[C@H](N2CCC(C3c4ccccc4CCn4c3nc3ccccc34)CC2)C[C@H]1Cc1ccccc1 (some centres unmarked) [Compound 13] | 74.2 | 
6 | O=C(c1cc(C(F)(F)F)cc(C(F)(F)F)c1)N1CC[C@@H](N2CCC(=C3c4sccc4CCn4ccnc43)CC2)C[C@H]1Cc1ccccc1 (relative stereo) [Compound 6] |  | % inhibition of the response to 10^-9 M substance P [1, 4]: 93.9%
7 | O=C(c1ccc2ccccc2c1)N1CC[C@@H](N2CCC(=C3c4ccccc4CCn4ccnc43)CC2)C[C@@H]1Cc1ccccc1 (relative stereo) [Compound 78] | 7.5 | 
8 | Cc1cc(C)cc(C(=O)N2CC[C@H](N3CCC(=C4c5ccc(C)cc5CCn5ccnc54)CC3)C[C@H]2Cc2ccccc2)c1 (relative stereo) [Compound 57] | 66.7 | 
9 | O=C(c1cc2ccccc2s1)N1CCC(N2CCC(C3c4ccccc4Cn4c3nc3ccccc34)CC2)CC1Cc1ccccc1 (centres unmarked) [Compound 94] | 8.2 | 
10 | O=C(c1cc(C(F)(F)F)cc(C(F)(F)F)c1)N1CC[C@@H](N2CCC(C3c4ccccc4Cn4ccnc43)CC2)C[C@@H]1Cc1ccccc1 (some centres unmarked) [Compound 116] | 69.6 | 
11 | O=C(c1cc(C(F)(F)F)cc(C(F)(F)F)c1)N1CC[C@H](N2CCC(=C3c4ccccc4CCn4c(Cl)cnc43)CC2)C[C@@H]1Cc1ccccc1 (relative stereo) [Compound 62] | 49.0 | 
12 | O=C(c1cc(C(F)(F)F)cc(C(F)(F)F)c1)N1CC[C@H](N2CCC(=C3c4ccccc4CCn4c3nc3ccccc34)CC2)C[C@@H]1Cc1ccccc1 (relative stereo) [Compound 71] | 53.1 | 
13 | Cc1cc(C)cc(C(=O)N2CCC(N3CCC(=C4c5cccc(C)c5CCn5ccnc54)CC3)CC2Cc2ccccc2)c1 (centres unmarked) [Compound 29] | 8.1 | 
14 | Cc1cc(C)cc(C(=O)N2CC[C@@H](N3CCC(=C4c5ccccc5CCn5c(C=O)cnc54)CC3)C[C@H]2Cc2ccccc2)c1 (relative stereo) [Compound 24] | 38.3 | 
15 | O=C(c1cc(Cl)cc(Cl)c1)N1CC[C@H](N2CCC(=C3c4ccccc4CCn4ccnc43)CC2)C[C@H]1Cc1ccccc1 (relative stereo) [Compound 48] | 59.7 | 
16 | O=C(c1ccco1)N1CC[C@@H](N2CCC(=C3c4ccccc4CCn4ccnc43)CC2)C[C@@H]1Cc1ccccc1 (relative stereo) [Compound 77] | 3.2 | 
17 | Cc1cc(C)cc(C(=O)N2CC[C@H](N3CCC(=C4c5ccccc5CCn5c4nc4ccccc45)CC3)C[C@H]2Cc2ccccc2)c1 (relative stereo) [Compound 46] | 54.3 | 
18 | Cc1cc(C)cc(C(=O)N2CC[C@@H](N3CCC4(CC3)c3ccccc3CCn3ccnc34)C[C@H]2Cc2ccccc2)c1 (relative stereo) [Compound 119, (±)-cis-4-(5,6-dihydrospiro[11H-imidazo[2,1-b][3]benzazepine-11,4'-piperidin]-1-yl)-1-(3,5-dimethylbenzoyl)-2-(phenylmethyl)piperidine] | 9.3 | 
19 | O=C(c1cc(C(F)(F)F)cc(C(F)(F)F)c1)N1CC[C@H](N2CCC(=C3c4ccccc4CCn4c3nc(CO)c4CO)CC2)C[C@H]1Cc1ccccc1 (relative stereo) [Compound 49] | 52.5 | 
20 | O=C(Nc1cc(C(F)(F)F)cc(C(F)(F)F)c1)N1CC[C@@H](N2CCC(=C3c4ccccc4CCn4ccnc43)CC2)C[C@@H]1Cc1ccccc1 (relative stereo) [Compound 80] | 10.9 | 
21 | Cc1cc(C)cc(C(=O)N2CC[C@@H](N3CCC(C4c5ccccc5Cn5ccnc54)CC3)C[C@@H]2Cc2ccccc2)c1 (some centres unmarked) [Compound 109] | 13.5 | 
22 | COC(=O)c1cnc2n1CCc1ccccc1C2=C1CCN([C@H]2CCN(C(=O)c3cc(C)cc(C)c3)[C@@H](Cc3ccccc3)C2)CC1 (relative stereo) [Compound 40] | 8.4 | 
23 | O=C(c1cc(C(F)(F)F)cc(C(F)(F)F)c1)N1CCC(N2CCC(C3c4ccccc4CCn4c3nc3ccccc34)CC2)CC1Cc1ccc(Cl)c(Cl)c1 (centres unmarked) [Compound 64] | 26.4 | 
24 | Cc1cn2c(n1)C(=C1CCN([C@H]3CCN(C(=O)c4cc(C(F)(F)F)cc(C(F)(F)F)c4)[C@H](Cc4ccccc4)C3)CC1)c1ccn(C)c1CC2 (relative stereo) [Compound 60] | 89.9 | 
25 | Cc1cc(C)cc(C(=O)N2CC[C@H](N3CCC(=C4c5ccc(C)cc5CCn5ccnc54)CC3)C[C@@H]2Cc2ccccc2)c1 (relative stereo) [Compound 56] | 9.5 | 
26 | O=C(c1ccc2ncsc2c1)N1CCC(N2CCC(C3c4ccccc4Cn4c3nc3ccccc34)CC2)CC1Cc1ccccc1 (centres unmarked) [Compound 96] | 17.3 | 
27 | CC(C(=O)N1CCC(N2CCC(=C3c4ccccc4CCn4ccnc43)CC2)CC1Cc1ccccc1)c1ccccc1 (centres unmarked) [Compound 85] | 1.8 | 
28 | O=C(c1cc(C(F)(F)F)cc(C(F)(F)F)c1)N1CCC(N2CCC(C3c4ccccc4CCn4c3nc3ccccc34)CC2)CC1Cc1ccc(F)c(F)c1 (centres unmarked) [Compound 67] | 64.4 | 
29 | O=C(c1cc(C(F)(F)F)cc(C(F)(F)F)c1)N1CC[C@H](N2CCC(=C3c4ccccc4CCn4c(Cl)cnc43)CC2)C[C@H]1Cc1ccccc1 (relative stereo) [Compound 58] | 91.5 | 
